Measured values taken from patent publication US20110319431A1, “Bis Aromatic Compounds for Use as LTC4 Synthase Inhibitors” (BIOLIPOX AB, priority 2009, published 2011).

Biological target: T1, Recombinant human LTC4 synthase (Homo sapiens, UniProt Q16873)
T1 construct: made in house; host or cells: Pichia pastoris
T1 sequence (Q16873 1-150): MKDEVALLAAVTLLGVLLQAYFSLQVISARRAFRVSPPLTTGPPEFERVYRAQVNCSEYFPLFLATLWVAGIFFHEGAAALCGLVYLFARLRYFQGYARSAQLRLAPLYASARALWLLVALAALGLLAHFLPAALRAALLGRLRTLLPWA
Test: In vitro LTC4 synthase assay (LTA4 to LTC4, HTRF detection)
Format: biochemical
Settings: 5 min; total concentration of title compounds in the assay 10 μM
Experimental: In the assay, LTC4 synthase catalyses the reaction where the substrate LTA4 is converted to LTC4. Recombinant human LTC4 synthase is expressed in Piccia pastoralis and the purified enzyme is dissolved in 25 mM tris-buffer pH 7.8 supplemented with 0.1 mM glutathione (GSH) and stored at −80° C. The assay is performed in phosphate buffered saline (PBS) pH 7.4 and 5 mM GSH in 384-well plates.
The following is added chronologically to each well:
1. 48 μL LTC4 synthase in PBS with 5 mM GSH. The total protein concentration in this solution is 0.5 μg/mL. 2. 1 μL inhibitor in DMSO (final concentration 10 μM). 3. Incubation of the plate at room temperature for 10 min. 4. 1 μL LTA4 (final concentration 2.5 μM). 5. Incubation of the plate at room temperature for 5 min. 6. 10 μL of the incubation mixture is analysed using homogenous time resolved fluorescent (HTRF) detection.

With `CCCCCCSc1ccc(C(=O)c2ccc(N(C)c3ccc(Cl)cc3)cc2)cc1C(=O)O` [Example 2:1, 5-{4-[(4-Chlorophenyl)(methyl)amino]benzoyl}-2-(1-hexylsulfanyl)benzoic acid] as the compound, how does the inhibition at 10 µM read?
The inhibition at 10 µM was 99%.

`CCCCCC[S+]([O-])c1ccc(C(=O)c2ccc(N(C)c3ccc(Cl)cc3)cc2)cc1C(=O)O` (stereo not shown) [Example 1:1, 5-{4-[(4-Chlorophenyl)(methyl)amino]benzoyl}-2-(1-hexylsulfinyl)benzoic acid] was tested. Which inhibition at 10 µM did it give?
The inhibition at 10 µM was 100%.

Which inhibition at 10 µM does the source give for `CN(c1ccc(Cl)cc1)c1ccc(C(=O)c2ccc(Sc3ccc(F)c(F)c3)c(C(=O)O)c2)cc1` [2:3, 5-{4-[(4-Chlorophenyl)(methyl)amino]benzoyl}-2-(3,4-difluorophenyl-sulfanyl)benzoic acid] here?
The inhibition at 10 µM was 96%.

With `CN(c1ccc(Cl)cc1)c1ccc(C(=O)c2ccc(S(=O)(=O)c3ccc(Cl)cc3)c(C(=O)O)c2)cc1` [Example 3:2, 5-{4-[(4-Chlorophenyl)(methyl)amino]benzoyl}-2-(4-chlorophenylsulfonyl)benzoic acid] as the compound, how does the inhibition at 10 µM read?
The inhibition at 10 µM was 98%.

Which inhibition at 10 µM does the source give for `CN(c1ccc(Cl)cc1)c1ccc(C(=O)c2ccc([S+]([O-])c3ccc(F)c(F)c3)c(C(=O)O)c2)cc1` (stereo not shown) [1:3, 5-{4-[(4-Chlorophenyl)(methyl)amino]benzoyl}2-(3,4-difluorophenylsulfinyl)-benzoic acid] here?
The inhibition at 10 µM was 100%.

Same assay, conditions: Table 4, title compounds of Example 4

With `COc1cccc(Sc2cc(C(=O)O)cc(C(=O)c3ccc(N(C)c4ccc(Cl)cc4)cc3)c2)c1` [4:5, 3-{4-[(4-Chlorophenyl)(methyl)amino]benzoyl}-5-(3-methoxyphenyl-sulfanyl)benzoic acid] as the compound, how does the IC50 read?
Its IC50 is 143 nM.

For `CN(c1ccc(Cl)cc1)c1ccc(C(=O)c2cc(Sc3cccc(Cl)c3)cc(C(=O)O)c2)cc1` [4:6, 3-{4-[(4-Chlorophenyl)(methyl)amino]benzoyl}-5-(3-chlorophenyl-sulfanyl)benzoic acid], which IC50 is on record?
Its IC50 is 165 nM.

How did the IC50 turn out when `COc1ccc(Sc2cc(C(=O)O)cc(C(=O)c3ccc(N(C)c4ccc(Cl)cc4)cc3)c2)cc1OC` [4:7, 3-{4-[(4-Chlorophenyl)(methyl)amino]benzoyl}-5-(3,4-dimethoxyphenyl-sulfanyl)benzoic acid] was run?
Its IC50 is 328 nM.

For `CCCCCC[S+]([O-])c1cc(C(=O)O)cc(C(=O)c2ccc(N(C)c3ccc(Cl)cc3)cn2)c1` (stereo not shown) [Example 4:2, 3-{5-[(4-Chlorophenyl)(methyl)amino]picolinoyl}-5-(1-hexylsulfinyl)-benzoic acid], which IC50 is on record?
Its IC50 is 404 nM.

How did the IC50 turn out when `CN(c1ccc(Cl)cc1)c1ccc(C(=O)c2cc(Sc3ccccc3)cc(C(=O)O)c2)cc1` [4:10, 3-{4-[(4-Chlorophenyl)(methyl)amino]benzoyl}-5-(phenysulfanyl)benzoic acid] was run?
The IC50 was 175 nM.

With `CCCCCCSc1cc(C(=O)O)cc(C(=O)c2ccc(N(C)c3ccc(Cl)cc3)cn2)c1` [4:3, 3-{5-[(4-Chlorophenyl)(methyl)amino]picolinoyl}-5-(1-hexyl)-sulfanylbenzoic acid] as the compound, how does the IC50 read?
Its IC50 is 215 nM.

Same assay, conditions: title compounds of the Examples

For `CN(c1ccc(Cl)cc1)c1ccc(C(=O)c2cc(Sc3cccc(Cl)c3)cc(C(=O)O)c2)cc1` [2:26, 3-(4-((4-Chlorophenyl)(methyl)amino)benzoyl)-5-(3-chlorophenylsulfanyl)benzoic acid], which IC50 is on record?
The IC50 was 165 nM.

How did the IC50 turn out when `CCCCCCSc1cc(C(=O)O)cc(C(=O)c2ccc(N(C)c3ccc(Cl)cc3)cn2)c1` [2:23, 3-{5-[(4-Chlorophenyl)methylamino]pyridine-2-carbonyl}-5-(1-hexyl)-sulfanylbenzoic acid] was run?
Its IC50 is 215 nM.

With `CCCCCCSc1ccc(C(=O)c2ccc(N(CC3CC3)c3ccc(Cl)cc3)cn2)cc1C(=O)O` [2:15, 5-{5-[(4-Chlorophenyl)cyclopropylmethylamino]pyridine-2-carbonyl}-2-(1-hexylsulfanyl)benzoic acid] as the compound, how does the IC50 read?
Its IC50 is 96 nM.

With `CN(c1ccc(Cl)cc1)c1ccc(C(=O)c2ccc([S+]([O-])Cc3ccccc3)c(C(=O)O)c2)cc1` (stereo not shown) [1:9, 2-(Benzylsulfinyl)-5-{4-[(4-chlorophenyl)(methyl)amino]benzoyl}benzoic acid] as the compound, how does the IC50 read?
The IC50 was 109 nM.

With `CCCC[S+]([O-])c1ccc(C(=O)c2ccc(N(C)c3ccc(Cl)cc3)cc2)cc1C(=O)O` (stereo not shown) [1:7, 2-(1-Butylsulfinyl)-5-{4-[(4-chlorophenyl)(methyl)amino]benzoyl}benzoic acid] as the compound, how does the IC50 read?
The IC50 was 160 nM.

`CCCCCCSc1ccc(C(=O)c2ccc(N(C)c3ccc(Cl)cc3)cc2)cc1C(=O)O` [Example 2:1, 5-{4-[(4-Chlorophenyl)(methyl)amino]benzoyl}-2-(1-hexylsulfanyl)benzoic acid] was tested. Which IC50 did it give?
Its IC50 is 172 nM.

Which IC50 does the source give for `O=C(c1ccc([S+]([O-])c2ccc(C(F)(F)F)cc2)c(C(=O)O)c1)c1ccc(N(CC2CC2)c2ccc(Cl)cc2)cn1` (stereo not shown) [Example 1:14, 5-{5-[(4-Chlorophenyl)cyclopropylmethylamino]pyridine-2-carbonyl}-2-(4-tri-fluoromethylphenylsulfinyl)benzoic acid] here?
The IC50 was 48 nM.

For `CN(c1ccc(Cl)cc1)c1ccc(C(=O)c2ccc([S+]([O-])CC34CCC(CC3O)C4(C)C)c(C(=O)O)c2)cc1` (stereo not shown) [1:10, 5-{4-[(4-Chlorophenyl)(methyl)amino]benzoyl}-2-[(2-hydroxy-7,7-dimethyl-bicyclo[2.2.1]-1-heptyl)methylsulfinyl]benzoic acid], which IC50 is on record?
Its IC50 is 86 nM.

With `O=C(c1ccc([S+]([O-])c2cccc(C(F)(F)F)c2)c(C(=O)O)c1)c1ccc(N(CC2CC2)c2ccc(Cl)cc2)cn1` (stereo not shown) [1:15, 5-{5-[(4-Chlorophenyl)cyclopropylmethylamino]pyridine-2-carbonyl}-2-(3-tri-fluoromethylphenylsulfinyl)benzoic acid] as the compound, how does the IC50 read?
Its IC50 is 28 nM.

Which IC50 does the source give for `CCCCCC[S+]([O-])c1ccc(C(=O)c2ccc(N(C)c3ccc(Cl)cc3)cc2)cc1C(=O)O` (stereo not shown) [Example 1:1, 5-{4-[(4-Chlorophenyl)(methyl)amino]benzoyl}-2-(1-hexylsulfinyl)benzoic acid] here?
The IC50 was 56 nM.

`CN(c1ccc(Cl)cc1)c1ccc(C(=O)c2ccc(Sc3ccc(F)c(F)c3)c(C(=O)O)c2)cc1` [2:3, 5-{4-[(4-Chlorophenyl)(methyl)amino]benzoyl}-2-(3,4-difluorophenyl-sulfanyl)benzoic acid] was tested. Which IC50 did it give?
The IC50 was 51 nM.

Which IC50 does the source give for `CN(c1ccc(Cl)cc1)c1ccc(C(=O)c2ccc(S(=O)(=O)c3ccc(Cl)cc3)c(C(=O)O)c2)cc1` [Example 3:2, 5-{4-[(4-Chlorophenyl)(methyl)amino]benzoyl}-2-(4-chlorophenylsulfonyl)benzoic acid] here?
Its IC50 is 635 nM.

How did the IC50 turn out when `O=C(c1ccc(N(CC2CC2)c2ccc(Cl)cc2)cc1)c1ccc([S+]([O-])c2ccccc2)c(C(=O)O)c1` (stereo not shown) [Example 1:11, 5-{4-[(4-Chlorophenyl)(cyclopropylmethyl)amino]benzoyl}-2-phenylsulfinyl-benzoic acid] was run?
Its IC50 is 26 nM.

`CCCCCC[S+]([O-])c1cc(C(=O)O)cc(C(=O)c2ccc(N(C)c3ccc(Cl)cc3)cn2)c1` (stereo not shown) [Example 1:20, 3-{5-[(4-Chlorophenyl)methylamino]pyridine-2-carbonyl}-5-(1-hexylsulfinyl)-benzoic acid] was tested. Which IC50 did it give?
The IC50 was 404 nM.

`COc1ccc(Sc2cc(C(=O)O)cc(C(=O)c3ccc(N(C)c4ccc(Cl)cc4)cc3)c2)cc1OC` [2:27, 3-(4-((4-Chlorophenyl)(methyl)amino)benzoyl)-5-(3,4-dimethoxyphenylsulfanyl)benzoic acid] was tested. Which IC50 did it give?
The IC50 was 328 nM.

`CN(c1ccc(Cl)cc1)c1ccc(C(=O)c2ccc([S+]([O-])c3ccccc3)c(C(=O)O)c2)cc1` (stereo not shown) [1:8, 5-{4-[(4-Chlorophenyl)(methyl)amino]benzoyl}-2-(phenylsulfinyl)benzoic acid] was tested. Which IC50 did it give?
Its IC50 is 82 nM.

Which IC50 does the source give for `CN(c1ccc(Cl)cc1)c1ccc(C(=O)c2ccc([S+]([O-])c3ccc(F)c(F)c3)c(C(=O)O)c2)cc1` (stereo not shown) [1:3, 5-{4-[(4-Chlorophenyl)(methyl)amino]benzoyl}2-(3,4-difluorophenylsulfinyl)-benzoic acid] here?
Its IC50 is 107 nM.

With `CN(c1ccc(Cl)cc1)c1ccc(C(=O)c2cc(Sc3ccccc3)cc(C(=O)O)c2)cc1` [2:30, 3-(4-((4-Chlorophenyl)(methyl)amino)benzoyl)-5-(phenysulfanyl)benzoic acid] as the compound, how does the IC50 read?
Its IC50 is 175 nM.

How did the IC50 turn out when `COc1cccc(Sc2ccc(C(=O)c3ccc(N(CC4CC4)c4ccc(Cl)cc4)cn3)cc2C(=O)O)c1` [2:19, 5-{5-[(4-Chlorophenyl)cyclopropylmethylamino]pyridine-2-carbonyl}-2-(3-methoxy-phenylsulfanyl)-benzoic acid] was run?
Its IC50 is 81 nM.

Which IC50 does the source give for `CN(c1ccc(Cl)cc1)c1ccc(C(=O)c2cc(Sc3cccc(OC(F)(F)F)c3)cc(C(=O)O)c2)cc1` [2:28, 3-(4-((4-Chlorophenyl)(methyl)amino)benzoyl)-5-(3-(trifluoromethoxy)phenylsulfanyl)benzoic acid] here?
The IC50 was 148 nM.
